Results reported in US9993462B2, “Hydantoin derivative-containing pharmaceutical composition” (Chugai Seiyaku Kabushiki Kaisha, priority 2014, dated 2018).

What was measured:
[1] = test system: rabbit articular chondrocytes; assay: Suppression of terminal differentiation of rabbit articular chondrocytes (alkaline phosphatase and alizarin red staining); type: cell-based; settings: BMP-2 100 ng/mL, Compound 7 10^−7 to 10^−5 mol/L, PTH(1-34) 10^−10 to 10^−7 mol/L
Experimental: NZW rabbits (4-week old, Oriental Yeast Co., Ltd.) were euthanized, and then the articular cartilage of the lower leg bone was collected, and transferred to a 50-mL test tube (Nippon Becton Dickinson Company). PBS (Nacalai Tesque, Inc.) containing 1% trypsin (Wako Pure Chemical Industries, Ltd.) was added to this, and the soft tissue was digested at 37° C. for one hour. This was followed by centrifugation at 1,200 rpm for five minutes, then supernatant was removed and PBS(−) was added to suspend the cartilage tissue. This was centrifuged at 1,200 rpm for five minutes, followed by removal of the supernatant, and washed three times by suspending in PBS(−). This was centrifuged at 1,200 rpm for five minutes, and then the cell pellet was digested by treatment with DMEM (Life Technologies Japan, Ltd.) containing 0.2% Type II collagenase (CLS-2, Worthington Biochemical Corp.) at 37° C. for three hours. Fetal bovine serum (Life Technologies Japan, Ltd.) was added at 10% v/v to stop the reaction, and this was vigorously pipetted using a 10-mL pipette (Nippon Becton Dickinson Company) to isolate the chondrocytes. This was centrifuged at 1,200 rpm for five minutes, followed by removal of the supernatant, and washed three times by suspending in 10% FCS-containing DMEM, and the chondrocytes were seeded at 1×10^4 cells/well on an I-type collagen-coated 96-well culture plate (AGC TECHNO GLASS CO., LTD.). Medium exchange was performed three times a week; and after the cells reached confluency, they were cultured in DMEM containing 100 μg/mL L-ascorbic acid phosphate magnesium salt n-hydrate (Wako Pure Chemical Industries, Ltd.), 10 mmol/L β-glycerophosphate pentahydrate (Wako Pure Chemical Industries, Ltd.) and 10% FCS. The following conditions were used to culture the cells, and alkaline phosphatase staining (cultured for 14 days) and alizarin red staining (cultured for 21 days) were performed to evaluate terminal differentiation of chondrocytes.
Alkaline phosphatase staining was performed by discarding the medium, then washing the chondrocytes once with 200 mmol/L Tris-HCl pH8.2 buffer, staining the cells according to the protocol supplied with the alkaline phosphatase staining kit (Vector Red Alkaline Phosphatase Substrate Kit I, Vector Laboratories, Inc.), and taking photographs with an inverted microscope (Nikon Corporation) (4× objective).
Alizarin red staining was performed by discarding the medium, then washing the chondrocytes twice with PBS, fixing the cells using 100% ethanol (Wako Pure Chemical Industries Ltd.) for 15 minutes, discarding the ethanol, and then staining with 1% alizarin red S (Wako Pure Chemical Industries Ltd.) for 15 minutes, followed by washing with distilled water; and photographs were taken with an inverted microscope.

[2] = test system: ovariectomized rats; assay: Bone mineral density after six weeks of repeated administration to ovariectomized rats; type: in vivo, rat; settings: once a day for six weeks, Compound 7 30 mg/kg oral
Experimental: Female Crl:CD(SD) rats obtained from Charles River Japan, Inc. were acclimated for one week or longer under standard laboratory conditions of 20° C. to 26° C. and 35% to 75% humidity, and then used in experiments. The rats had free access to tap water and a standard rodent diet (CE-2) (Clea Japan Inc.) containing 1.1% calcium, 1.0% phosphoric acid, and 250 IU/100 g vitamin D3.
Twelve-week old rats were subjected to removal of both ovaries by surgery (OVX) or to sham surgery (Sham). After the body weight was determined in the fourth week after surgery, the rats were divided into groups so that the average body weight of each group of six rats would be even. From the subsequent day after group division, each rat was subjected to repeated administration once a day for six weeks. The solvent for oral administration (vehicle) and the solvent for subcutaneous administration (PC buffer) were respectively administered orally and subcutaneously to rats of the Sham-Control group. Vehicle and PC buffer were orally and subcutaneously administered to rats of the OVX-Control group, respectively. To rats of OVX-Compound 7, the above-mentioned Compound 7 dissolved in the vehicle was orally administered at a dose of 30 mg/kg, and PC buffer was administered subcutaneously. To rats of the OVX-hPTH(1-34) group, the vehicle was orally administered, and hPTH(1-34) dissolved in PC buffer was subcutaneously administered at a dose of 0.9 nmol/kg.
The level of AUC (area under the curve for blood concentration vs. time) was the same as when 20 μg of Forteo®, a therapeutic agent clinically used for osteoporosis, is administered to humans when the administration dose for rats was set to 0.9 nmol/kg. The administration doses were 5 mL/kg for oral administration and 1 mL/kg for subcutaneous administration in all groups. The vehicle used was a composition prepared from 10% dimethyl sulfoxide (Wako Pure Chemical Industries, Ltd.), 10% Kolliphor EL (Sigma-Aldrich Japan), and 10% hydroxypropyl-β-cyclodextrin (Nihon Shokuhin Kako Co., Ltd), whose pH was adjusted to 10 using glycine (Wako Pure Chemical Industries, Ltd.) and sodium hydroxide (Wako Pure Chemical Industries, Ltd.). The PC buffer used was a composition prepared from 25 mmol/L phosphate-citrate buffer, 100 mmol/L NaCl, and 0.05% Tween80, adjusted to pH 5.0. […] The bone mineral densities of the lumbar spine and femur were determined using a dual X-ray bone mineral scanner (DCS-600EX, Aloka). The lumbar spine bone mineral density was determined by measuring the second to fourth lumbar vertebrae; and the femur bone mineral density was determined by vertically dividing the femur into ten parts, and measuring the three parts at the distal end of the knees. […]

SMILES: Cc1cc(N2C(=O)NC(=O)C2(C)C)cc(C)c1CCS(=O)(=O)N1CCC2(CC1)N=C(c1ccc(OC(F)(F)F)cc1)NC2=O [Compound 7, 1-(3,5-dimethyl-4-(2-((4-oxo-2-(4-(trifluoromethoxy)phenyl)-1,3,8-triazaspiro[4.5]deca-1-en-8-yl)sulfonyl)ethyl)phenyl)-5,5-dimethylimidazolidine-2,4-dione]
- alkaline phosphatase activity (alkaline phosphatase staining) ([1]; cultured for 14 days): suppressed alkaline phosphatase activity in a concentration-dependent manner
- alizarin red staining property (calcification) ([1]; cultured for 21 days): suppressed the alizarin staining property in a concentration-dependent manner
- lumbar spine bone mineral density with respect to the OVX-Control group (in words) [2]: increasing trend
- percentage of increase in femur bone mineral density with respect to the OVX-Control group ([2]; hPTH(1-34) 0.9 nmol/kg subcutaneous): 12%
